Columns and labels:
[1] = system: TRAIL-resistant cancer cells (HT29, MDA-MB-231, LNCAP, DU145, PC3, A549); test: Cell death after TRAIL / TRAILPEG alone in various cancer cells (FIG. 2A); type: cell-based, human; settings: TRAIL 1 μg/mL for 24 hours
Protocol: Quantified cell death data after TRAIL (1 μg/mL) treatment for 24 hours in various cancer cell types are shown. Human tumor cell lines include: colon (HT-29, SW620, HCT116), prostate (PC3), breast (MDA-MD-231, MCF-7), lung (A549). HCT116 represents a TRAIL-sensitive colorectal tumor for comparison. HEK293T is a normal human kidney cell line.
A library of KIs was screened for TRAIL sensitization in various TRAIL-resistant cancer cells, including: HT29 (CRC), MDA-MB-231 (breast), LNCAP (prostate), DU145 (prostate), PC3 (prostate) and A549 (lung). […] The 355 KIs comprised of compounds targeting diverse kinases, including multi kinases, RTK (receptor kinase tyrosine), PI3K (phosphinistide 3-kinase), aurora kinases, including […] (mitogen-activated protein kinase). […] The interaction between KIs and TRAIL had been previously explored in vitro with the tyrosine KI sorafenib, a drug similar to regorafenib. However, such studies were mostly performed on cellular levels and not in in vivo models, combined with systemically administered recombinant TRAIL. Although a similar structure, regorafenib was newly approved in 2012. The interactions between the three other selected KIs and TRAIL have not been previously reported, in vitro or in vivo.

[2] = mouse, in vivo; cited from earlier work
[3] = in vivo; cited from earlier work
cancer patients = settings: cited from earlier work

Question: What does the source list for “TRAIL: Tumor necrosis factor (TNF)-related apoptosis-inducing ligand, member of the TNF family”?
Answer: TRAIL-induced apoptosis (cell death) by TRAIL [1]: resistance to TRAIL-induced apoptosis; circulating half-life [2]: 66 min

Question: With “dulanermin: recombinant TRAIL, native-type, short-acting” as the substance, how does the half-life [3] read?
Answer: 5 min

Question: What about the therapeutic benefit (cancer patients; cancer patients, monotherapy studies) of the same substance?
Answer: failed to demonstrate a robust therapeutic benefit

Question: And the anticancer activity (cancer patients; combined with chemotherapy, lung and colon cancer patients)?
Answer: did not reveal improved anticancer activity

Question: And the tolerability (cancer patients; human, in vivo)?
Answer: broad tolerability
